From ChEMBL document CHEMBL1201862, “PubChem BioAssay data set” (2004)
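Where inhibition never reached the appropriate level, the endpoint shown equals the highest concentration tested. Otherwise, values were interpolated linearly from a five-concentration, 48-hour dose response in 96-well plates. GI50 marks 50% less growth.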 The source made the active and inactive calls. No stated cut-off is given here; in the data, active = GI50 up to about 1.1 µM and inactive = higher.

Columns and labels:
Assay in all cases: DTP human tumour cell line panel, 48 h
CAKI-1 = test system: CAKI-1
DMS-114 = test system: DMS-114
DMS-273 = test system: DMS-273
EKVX = test system: EKVX
HCC 2998 = test system: HCC 2998
HCT-116 = test system: HCT-116
IGROV-1 = test system: IGROV-1
KM12 = test system: KM12
LOX IMVI = test system: LOX IMVI
NCI-H522 = test system: NCI-H522
RPMI-8226 = test system: RPMI-8226
SK-MEL-2 = test system: SK-MEL-2
SN12C = test system: SN12C
SNB-19 = test system: SNB-19
SW-620 = test system: SW-620
U-251 = test system: U-251
A498 = test system: A498
DU-145 = test system: DU-145
MCF7 = test system: MCF7
MDA-MB-435 = test system: MDA-MB-435

Row | SMILES | GI50 (CAKI-1) | GI50 (DMS-114) | GI50 (DMS-273) | GI50 (EKVX) | GI50 (HCC 2998) | GI50 (HCT-116) | GI50 (IGROV-1) | GI50 (KM12) | GI50 (LOX IMVI) | GI50 (NCI-H522) | GI50 (RPMI-8226) | GI50 (SK-MEL-2) | GI50 (SN12C) | GI50 (SNB-19) | GI50 (SW-620) | GI50 (U-251) | GI50 (A498) | GI50 (DU-145) | GI50 (MCF7) | GI50 (MDA-MB-435)
1 | COC(=O)/C(=C/CC(N=C(c1ccccc1)c1ccccc1)C(=O)OC)N=C(c1ccccc1)c1ccccc1 (stereo not drawn) | > 100 µM (inactive) | 15.1 µM (inactive) | > 100 µM (inactive) | > 100 µM (inactive) | > 100 µM (inactive) | > 100 µM (inactive) | > 100 µM (inactive) | > 100 µM (inactive) | > 100 µM (inactive) | 38.5 µM (inactive) | 79.3 µM (inactive) | > 100 µM (inactive) | > 100 µM (inactive) | > 100 µM (inactive) | > 100 µM (inactive) | > 100 µM (inactive) |  |  |  | 
2 | OC1(C23CC4CC(CC(C4)C2)C3)CSCC1(O)C12CC3CC(CC(C3)C1)C2 (stereo not drawn) | > 100 µM (inactive) | > 100 µM (inactive) | > 100 µM (inactive) | > 100 µM (inactive) | > 100 µM (inactive) | > 100 µM (inactive) | > 100 µM (inactive) | > 100 µM (inactive) |  | > 100 µM (inactive) | > 100 µM (inactive) | > 100 µM (inactive) | > 100 µM (inactive) | > 100 µM (inactive) | > 100 µM (inactive) |  |  |  |  | 
3 | COc1cc2c(cc1OC)C1c3ccccc3CCCN1CC2 (stereo not drawn) | > 100 µM (inactive) |  |  | > 100 µM (inactive) | > 100 µM (inactive) | 36.4 µM (inactive) | > 100 µM (inactive) | > 100 µM (inactive) | > 100 µM (inactive) | > 100 µM (inactive) | 46.7 µM (inactive) | > 100 µM (inactive) | > 100 µM (inactive) | > 100 µM (inactive) | > 100 µM (inactive) | > 100 µM (inactive) | > 100 µM (inactive) | > 100 µM (inactive) | > 100 µM (inactive) | > 100 µM (inactive)
4 | CC1(C)CCC[C@@]2(C)C1CC[C@H]1CC(O)C3(C)CCC12C3 (stereo partly drawn) | 16.6 µM (inactive) | 17.3 µM (inactive) |  |  | 19.8 µM (inactive) | 17.3 µM (inactive) | 22.2 µM (inactive) | 17.5 µM (inactive) | 15.4 µM (inactive) | 16.6 µM (inactive) | 25.8 µM (inactive) |  | 16.9 µM (inactive) | 18 µM (inactive) | 17.1 µM (inactive) | 18.2 µM (inactive) |  |  |  | 
5 | c1ccc2c(c1)CCN1CCc3c([nH]c4ccccc34)C21 (stereo not drawn) | 30.3 µM (inactive) |  |  | 28.2 µM (inactive) | 17.2 µM (inactive) | 24.2 µM (inactive) | 29.4 µM (inactive) | 26.5 µM (inactive) | 22.8 µM (inactive) | 34 µM (inactive) | 23 µM (inactive) | 23 µM (inactive) | 32.7 µM (inactive) | 67.5 µM (inactive) | 36.2 µM (inactive) | 34.2 µM (inactive) | 22.9 µM (inactive) | 40.6 µM (inactive) | 63.7 µM (inactive) | 26.7 µM (inactive)
6 | Cc1ccc2[nH]c3c(C)c4c(c(C)c3c2c1)CN(C)C=C4 |  |  | 1.04 µM (active) | 1.17 µM (inactive) | 1.52 µM (inactive) | 2.32 µM (inactive) | 0.698 µM (active) | 0.54 µM (active) | 3.93 µM (inactive) | 0.152 µM (active) | 5.35 µM (inactive) | 1.72 µM (inactive) | 0.186 µM (active) | 0.52 µM (active) | 0.281 µM (active) | 0.271 µM (active) |  |  |  | 
